Experimental findings from PubChem BioAssay AID179 (DTP/NCI, 2004) are described below.

SMILES strings stand for the structures. Calls of active or inactive are those of the source.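 Rule for the calls: active = compounds giving half or more protection of infected cells from virus-caused growth loss, again on retest; inactive = the rest.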 Where a SMILES comes first, the peptide text is derived from it. Bridges are numbered along the chain shown (N, C = ends). The star is where a group is joined. Cbz = O=C(OCc1ccccc1)*

One may read the EC50 as the concentration giving half of the maximal effect. By IC50 is commonly meant the midpoint of a concentration-inhibition curve. A lower IC50 goes with higher potency.

This experiment concerns CEM cells HIV-1 protection, formazan growth assay. Nature of the experiment: NCI AIDS Antiviral Assay. Particulars: for IC50: measured here: growth of uninfected CEM cells. The method, boiled down:
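Protection of CEM cells against HIV-1 measured as cell growth via soluble formazan read-out, with five concentrations tested on both infected and uninfected cells; failure to protect may reflect toxicity.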

Regarding `COc1ccc2c3c(n(Cc4ccccc4)c(=O)c2c1)-c1cc(OC)c(OC)cc1C3C` (centres undefined), the EC50 is over 6.31 µM and the half-inhibitory concentration (IC50) was over 6.31 µM.
For `Cc1ccc(S(=O)(=O)Sc2nnnn2-c2ccccc2)cc1`, the EC50 was over 15.8 µM and the half-maximal inhibitory concentration (IC50) was over 15.8 µM.
For `COc1cc(O)c2c(=O)c(OC)c(-c3ccc(OC)c(OC)c3)oc2c1.[Co]`, the EC50 is over 100 µM and the half-maximal inhibitory concentration (IC50) was 56.2 µM.
The matching figures for `Cc1cc2c(cc1C)[n+]([O-])c(NCCCN(C)C)c(C#N)[n+]2[O-]`: over 200 µM and 72.4 µM.
For the compound `CN(C)c1ccc(/C=C/C(=O)c2ccccc2)cc1Br`, the EC50 was over 15.8 µM and the IC50 was over 15.8 µM.
Regarding `COc1cccc(/C=C\c2ccc(O)cc2)c1`, the EC50 is over 200 µM and the IC50 came out at 4.27 µM.
The matching figures for `CCOc1ccc(NC(=O)CC2SC(=Nc3ccc(Cl)cc3)NC2=O)cc1` (centres undefined): over 617 µM and over 617 µM.
For `Cc1cc(=O)c2cc3nc(-c4cccnc4)oc3c(Br)c2o1`, the EC50 was 182 µM and the IC50 was over 200 µM.
In the case of `O=C1c2ccc(S(=O)(=O)O)cc2C(=O)c2cc(S(=O)(=O)O)ccc21`, the result was inactive.
Consider `O=c1cc(C(F)(F)F)c2cc3c(cc2o1)NCCC3`, for which the EC50 is over 9.77 µM and the IC50 was over 9.77 µM.
Take `C=C(CCCCOCOCCOC)[Si](C)(C)C`: the EC50 is over 138 µM and the IC50 was over 138 µM.
Turning to `c1ccc2c(c1)ncn2C1CCCCO1` (centres undefined), the EC50 is over 200 µM and the IC50 is over 200 µM.
In the case of `COc1cccc2c1C(=O)c1c(O)c3c(c(O)c1C2=O)C[C@@](O)(/C(C)=N\O)C[C@@H]3OC1CC(N)C(O)C(C)O1` (some centres undefined), the EC50 was over 0.2 µM and the half-inhibitory concentration (IC50) worked out at 0.0646 µM.
Consider `N/N=C(/CC(O)(C(F)(F)F)C(F)(F)F)c1ccccc1`, for which the EC50 is over 200 µM and the IC50 is 112 µM.
The matching figures for `COc1ccc2c(c1)N=C(N)n1c(nc3ccccc31)S2`: over 200 µM and 6.61 µM.
On to `C1N2CN3CN1CN(C2)C3.[Cu+2]`, for which the result was inactive.
For the compound `CN(C)CCNC(=O)c1ccc(Cl)c2c(Nc3ccc(S(=O)(=O)N=C(N)N)cc3)c3ccccc3nc12`, the outcome was inactive.
Regarding `O=c1n(-c2ccccc2)c(=O)n2n1C1/C=C\C=C/C2C2CCC21` (centres undefined), the EC50 is over 200 µM and the IC50 was over 200 µM.
As for `CC1SC(C)SC(C(C)(C)O)S1` (centres undefined), the EC50 is over 32.4 µM and the IC50 was over 32.4 µM.
For the compound `COC(=O)CC[N+]1=CCC(c2ccccc2)(c2ccccc2)O1`, the EC50 was over 115 µM and the IC50 worked out at 69.2 µM.
The matching figures for `COCN1COCN=C1NC#N`: over 525 µM and over 525 µM.
With `COC(=O)C1CCCCNC(=O)CCC(NC(=O)OCc2ccccc2)C(=O)N1` (stereo not drawn) (Cbz-Glu-Lys-OMe; lactam 1-2; configuration not given here), the EC50 was over 200 µM and the IC50 is over 200 µM.
`COC(=O)c1ccccc1/C=C1\Cc2ccc(C)c(C)c2C1=O`: the EC50 is over 200 µM and the IC50 is over 200 µM.
With `Cc1ccc(NC(=S)Nc2c(C)n(C)n(-c3ccccc3)c2=O)cc1`, the EC50 was over 200 µM and the IC50 was over 200 µM.
In the case of `C=CCNC(=O)/C=C\C(=O)O`, the EC50 was over 1620 µM and the IC50 is over 1620 µM.
Regarding `Oc1ccc(CCc2nc3ccccc3[nH]2)cc1`, the EC50 is over 200 µM and the IC50 was found to be 42.7 µM.
On to `Cc1ccc2oc(=O)cc(CC(=O)O)c2c1`, for which the EC50 is over 1150 µM and the IC50 was over 1150 µM.
For the compound `CCOC(=O)C(NC(=O)c1ccccc1)(Nc1ccc(S(=O)(=O)Nc2ccc(OC)nn2)cc1)C(F)(F)F` (centres undefined), the EC50 is over 200 µM and the IC50 is over 200 µM.
As to `CC1CC2OC(/C=C/C=C/C=C/C=C\C=C\C(O)=C3/C(=O)C(C(C)C)N(C)C3=O)C(O)C2O1` (centres undefined), the EC50 is over 200 µM and the IC50 came out at 107 µM.
Take `CCOC(=O)CNc1nnnn1C1OC(CO)C(O)C1O` (centres undefined): the EC50 is over 832 µM and the IC50 is over 832 µM.
With `NC(N)=NS(=O)(=O)c1ccc(NC(=O)c2cccc3c(N)c4ccccc4nc23)cc1`, the EC50 was over 51.3 µM and the IC50 stood at 33.9 µM.
The matching figures for `Cc1ccc[n+](N)c1N`: over 1000 µM and over 1000 µM.
Consider `CCCCCCOC(=O)c1[nH]c(=O)[nH]c(=O)c1N`, for which the EC50 is over 200 µM and the IC50 is over 200 µM.
As to `COC(=O)C1CCC(=O)N1C(c1ccccc1)c1cc(OC)c(OC)c(OC)c1` (centres undefined), the EC50 is over 200 µM and the IC50 was found to be 34.7 µM.
The matching figures for `C/C(=N/NC(=S)N1CCCCCC1)c1ccccc1O`: over 200 µM and 4.27 µM.
The matching figures for `C[C@@H](c1ccccc1)n1c(N)c(-c2ccccn2)c2ccc([N+](=O)[O-])cc2c1=O`: over 200 µM and 24 µM.
The matching figures for `ON(Cc1ccccc1)C(=S)c1ccccc1`: over 5.37 µM and 0.372 µM.
As for `CC(=O)NS(=O)(=O)c1ccc(NC(=O)c2ccccc2SC(=O)c2ccccc2)cc1`, the EC50 is 15.1 µM and the IC50 came to 117 µM.
The matching figures for `CC1=CC(=O)/C(=C/n2c(=S)sc3ccccc32)C(=O)O1`: over 200 µM and over 200 µM.
The matching figures for `NCCN.O=C([O-])C(=O)[O-].O=C([O-])C(=O)[O-].[Co+3].[K+]`: over 372 µM and 269 µM.
In the case of `C=C1C(=O)c2cc3c(cc2C(c2cc(OC)c(OC)c(OC)c2)[C@@H]1C(=O)O)OCO3` (some centres undefined), the result was inactive.
`Cc1nonc1C(=O)NN`: the EC50 was over 631 µM and the IC50 was over 631 µM.
With `Cc1cc2c(cc1Cl)SC(NNC(=O)c1ccccc1)=NS2(=O)=O`, the EC50 was 123 µM and the IC50 was determined as 132 µM.
Turning to `C/C=C(/C)C(=O)O[C@@H]1CCN2CC[C@H](COC(=O)/C(=C/C)CO)C12` (some centres undefined), the EC50 was over 200 µM and the IC50 stood at 107 µM.
